Consider nine compounds from PMC11679724, “Novel Quinoline- and Naphthalene-Incorporated Hydrazineylidene–Propenamide Analogues as Antidiabetic Agents: Design, Synthesis, and Computational Studies” (Pharmaceuticals, 2024).

In experiment [1] the target is T1, Porcine pancreatic amylase (Sus scrofa, UniProt P00690).
T1 sequence (P00690 16-511): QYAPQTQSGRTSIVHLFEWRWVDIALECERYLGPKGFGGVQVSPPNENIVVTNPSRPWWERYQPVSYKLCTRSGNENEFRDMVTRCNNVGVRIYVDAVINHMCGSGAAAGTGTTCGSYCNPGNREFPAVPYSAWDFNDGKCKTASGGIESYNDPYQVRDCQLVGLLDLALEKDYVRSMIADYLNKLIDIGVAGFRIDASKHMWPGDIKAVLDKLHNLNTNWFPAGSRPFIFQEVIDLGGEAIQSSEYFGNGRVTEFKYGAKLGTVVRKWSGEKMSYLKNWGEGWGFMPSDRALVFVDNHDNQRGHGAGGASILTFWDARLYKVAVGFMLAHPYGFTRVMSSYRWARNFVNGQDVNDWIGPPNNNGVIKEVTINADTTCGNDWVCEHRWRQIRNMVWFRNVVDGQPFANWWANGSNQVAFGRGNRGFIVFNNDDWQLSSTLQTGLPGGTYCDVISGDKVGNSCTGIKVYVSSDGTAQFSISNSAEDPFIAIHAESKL
As to the kind of experiment: In vitro α-amylase inhibition assay (starch substrate). In kind it is biochemical. The conditions noted are these: mean ± SE; starch 1%. On the procedure: (§1) Porcine pancreatic amylase, yeast α-glucosidase, and human recombinant aldose reductase were tested for enzyme inhibition using various substrates, such as starch (1%), pNPG (0.5 mM), and DL-glyceraldehyde (5 mM) for each enzyme. By comparing changes in the test sample absorbance levels to control values and computing inhibition percentages using the following formula, the degree of inhibition was ascertained: Inhibition (%) = [A×(control)] − [{A × (sample)}/{A × (control)} × 100].

For experiment [2], the target named is human recombinant aldose reductase (Homo sapiens, UniProt P15121). As to the kind of experiment: In vitro aldose reductase inhibition assay (DL-glyceraldehyde substrate). In kind it is biochemical. Here is the method: as §1
In experiment [3] the test system is aldose reductase (PDB ID: 1IEI). On the set-up: method as in doi:10.3390/separations9090262, PMID 35335251. The conditions noted are these: docking of previous study; cited from earlier work.
The test system of experiment [4] is α-glucosidase (PDB ID: 3A4A). Also on record: method as in doi:10.3390/separations9090262, PMID 35335251. Conditions: docking of previous study; cited from earlier work.
The next experiment concerns α-amylase (PDB-ID 1DHK). On the set-up: method as in doi:10.3390/separations9090262, PMID 35335251. Conditions: docking of previous study; cited from earlier work.
Setting [5] is: mean ± SE, DL-glyceraldehyde 5 mM.

In general, IC50 refers to the midpoint of a concentration-inhibition curve. `CS/C(Nc1ccccc1)=C(\C#N)C(=O)Nc1ccc(C(N)=O)cc1` [Compound 5a]: the IC50 in experiment [1] is 94 µM; in experiment [2] (setting [5]), 71.3 µM.

With `N#CC(C(=O)Nc1ccc(C(N)=O)cc1)C(=NNC(=O)COc1ccc2ccccc2c1)Nc1ccccc1` (centres unmarked) [Compound 7a, 4-(2-cyano-3-(2-(2-(naphthalen-2-yloxy)acetyl)hydrazineylidene)-3-(phenylamino)propanamido)benzamide], the figures for the IC50 in experiment [1] and in experiment [2] (setting [5]) were 43.1 µM and 42.6 µM, respectively.

In the case of `N#CC(C(=O)Nc1ccc(C(N)=O)cc1)C(=NNC(=O)COc1ccnc2ccccc12)Nc1ccccc1` (centres unmarked) [Compound 7b, 4-(2-cyano-3-(phenylamino)-3-(2-(2-(quinolin-4-yloxy)acetyl)hydrazineylidene)propanamido)benzamide], the IC50 is 37.3 µM in experiment [1] and 40.6 µM in experiment [2] (setting [5]).

Take `CCNC(=NNC(=O)COc1ccc2ccccc2c1)C(C#N)C(=O)Nc1ccc(C(N)=O)cc1` (centres unmarked) [Compound 7c, 4-(2-cyano-3-(ethylamino)-3-(2-(2-(naphthalen-2-yloxy)acetyl)hydrazineylidene)propanamido)benzamide]: the IC50 in experiment [1] is 57.1 µM; in experiment [2] (setting [5]), 50.8 µM.

On to `CC(=O)c1ccc(NC(=O)C(C#N)/C(=N/NC(=O)COc2ccc3ccccc3c2)Nc2ccccc2)cc1` (centres unmarked) [Compound 7d, N-(4-acetylphenyl)-2-cyano-3-(2-(2-(naphthalen-2-yloxy)acetyl)hydrazineylidene)-3-(phenylamino)propenamide], for which the results for the half-maximal inhibitory concentration (IC50) in experiment [1] and in experiment [2] (setting [5]) were 45.7 µM and 33.6 µM, respectively.

Regarding `CC(=O)c1ccc(NC(=O)C(C#N)/C(=N/NC(=O)COc2ccnc3ccccc23)Nc2ccccc2)cc1` (centres unmarked) [Compound 7e, N-(4-acetylphenyl)-2-cyano-3-(phenylamino)-3-(2-(2-(quinolin-4-yloxy)acetyl) hydrazineylidene)propenamide], the values for the half-maximal inhibitory concentration (IC50) in experiment [1] and in experiment [2] (setting [5]) were 38.4 µM and 43 µM, respectively.

Regarding `CCN/C(=N\NC(=O)COc1ccc2ccccc2c1)C(C#N)C(=O)Nc1ccc(C(C)=O)cc1` (centres unmarked) [Compound 7f, N-(4-acetylphenyl)-2-cyano-3-(ethylamino)-3-(2-(2-(naphthalen-2-yloxy)acetyl) hydrazineylidene)propenamide], the figures for the IC50 in experiment [1] and in experiment [2] (setting [5]) were 61.8 µM and 42.8 µM, respectively.

On to `CCN/C(=N\NC(=O)COc1ccnc2ccccc12)C(C#N)C(=O)Nc1ccc(C(C)=O)cc1` (centres unmarked) [Compound 7g, N-(4-acetylphenyl)-2-cyano-3-(ethylamino)-3-(2-(2-(quinolin-4-yloxy)acetyl) hydrazineylidene)propenamide], for which the concentration for half-maximal inhibition (IC50) is 36.3 µM in experiment [1], 25.7 µM in experiment [2] (setting [5]) and 25.8 µM in experiment [2] (µg/mL value restated in µM).

For the compound `O=C(O)/C=C/c1ccc(O)c(O)c1` [caffeic acid], the “binding affinity against aldose reductase” value in experiment [3] was -7.4 kcal/mol. The “binding affinity against α-glucosidase” value in experiment [4] was -8.2 kcal/mol. Moreover, the “binding affinity against α-amylase” value in the experiment on α-amylase (PDB-ID 1DHK) is -8.1 kcal/mol.
